20 compounds from PubChem BioAssay AID256 (DTP/NCI, 2004) can be followed below.

This assay deals with CD2F1 mice, L1210 leukemia ip, survival T/C. Description: NCI In Vivo Anticancer Drug Screen. Data for tumor model L1210 Leukemia (intraperitoneal) in CD2F1 (CDF1) mice. Particulars: endpoint: mean survival time, higher = longer survival. The essentials: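 Vehicle-treated tumor-bearing mice served as controls (C) for compound-treated mice (T). Reported figure is T divided by C.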

Setting [1] is: dose: 100.0 mg/kg/injection, schedule: Q04DX003 (ip), vehicle: saline with Tween-80.
Where [2] appears, read: dose: 25.0 mg/kg/injection, schedule: Q04DX002 (ip), vehicle: saline with Tween-80.
[3] abbreviates: dose: 50.0 mg/kg/injection, schedule: Q04DX002 (ip), vehicle: saline with Tween-80.
Setting [4] is: dose: 100.0 mg/kg/injection, schedule: Q04DX002 (ip), vehicle: saline with Tween-80.
The mark [5] stands for this setting: dose: 25.0 mg/kg/injection, schedule: Q01DX009 (ip), vehicle: saline with Tween-80.
[6] abbreviates: dose: 50.0 mg/kg/injection, schedule: Q01DX009 (ip), vehicle: saline with Tween-80.
Setting [7] is: dose: 100.0 mg/kg/injection, schedule: Q01DX009 (ip), vehicle: saline with Tween-80.
Where [8] appears, read: dose: 200.0 mg/kg/injection, schedule: Q01DX009 (ip), vehicle: saline with Tween-80.
Setting [9] is: dose: 200.0 mg/kg/injection, schedule: Q04DX003 (ip), vehicle: saline with Tween-80.
Setting [10] is: dose: 400.0 mg/kg/injection, schedule: Q01DX009 (ip), vehicle: saline with Tween-80.
Where [11] appears, read: dose: 400.0 mg/kg/injection, schedule: Q04DX003 (ip), vehicle: saline with Tween-80.

Values joined by “and” are separate entries in the source; they are usually repeats but may differ in a detail not shown here. Identical values can stand only once. Toxic doses and inconclusive results are not listed.

For the compound `CCCCNC(C)(C)C(SSC(c1cccs1)C(C)(C)NCCCC)c1cccs1` (stereo unspecified), the T/C (dose: 25.0 mg/kg/injection, schedule: Q04DX003 (ip), vehicle: saline with Tween-80) was 97 % of control; the T/C (dose: 50.0 mg/kg/injection, schedule: Q04DX003 (ip), vehicle: saline with Tween-80) is 101 % of control; the T/C under setting [1] is 98 % of control.

In the case of `CCc1cccc(CC)c1NC(N)=S`, the T/C is 108 % of control under setting [2], 97 % of control under setting [3] and 101 % of control under setting [4].

Turning to `Nc1nc(N)c(N=O)c(N)n1`, the T/C (dose: 100.0 mg/kg/injection, schedule: Q01DX009 (ip), vehicle: saline) is 98 % of control; the T/C (dose: 100.0 mg/kg/injection, schedule: Q04DX003 (ip), vehicle: saline) was 103 % of control; the T/C (dose: 200.0 mg/kg/injection, schedule: Q01DX009 (ip), vehicle: saline) is 97 % of control; the T/C (dose: 200.0 mg/kg/injection, schedule: Q04DX003 (ip), vehicle: saline) is 97 % of control; the T/C (dose: 400.0 mg/kg/injection, schedule: Q01DX009 (ip), vehicle: saline) is 100 % of control; the T/C (dose: 400.0 mg/kg/injection, schedule: Q04DX003 (ip), vehicle: saline) is 102 % of control.

`CCOC(=O)N(OCc1ccccc1)P(=O)(N1CC1(C)C)N1CC1(C)C` (stereo unspecified): the T/C runs as follows: under setting [5], 95 % of control; under setting [6], 93 % of control; under setting [7], 98 % of control.

As for `CC(C)CCCC(C)C1CCC2C3CC=C4CC(OCCO)CCC4(C)C3CCC12C` (stereo unspecified), the T/C (dose: 25.0 mg/kg/injection, schedule: Q01DX009 (ip), vehicle: other) is 104 % of control; the T/C (dose: 50.0 mg/kg/injection, schedule: Q01DX009 (ip), vehicle: other) is 101 % of control; the T/C (dose: 100.0 mg/kg/injection, schedule: Q01DX009 (ip), vehicle: other) was 87 % of control.

Regarding `N=C(N)SCc1c(Cl)c(Cl)c(Cl)c(Cl)c1Cl`, the T/C was 103 % of control under setting [2], 98 % of control under setting [3] and 98 % of control under setting [4].

Consider `O=C(NCCCCCCNC(=O)N1CC1)N1CC1`, for which the T/C is, setting by setting: (dose: 0.4 mg/kg/injection, schedule: Q01DX001 (ip), vehicle: saline) 109 % of control; (dose: 0.8 mg/kg/injection, schedule: Q01DX001 (ip), vehicle: saline) 118 % of control; (dose: 1.7 mg/kg/injection, schedule: Q01DX001 (ip), vehicle: saline) 114 % of control.

As for `CCCCOC(=O)c1cnc[nH]c1=O`, the T/C (dose: 100.0 mg/kg/injection, schedule: Q01DX001 (ip), vehicle: saline with Tween-80) is 95 % of control; the T/C (dose: 200.0 mg/kg/injection, schedule: Q01DX001 (ip), vehicle: saline with Tween-80) is 93 % of control; the T/C (dose: 400.0 mg/kg/injection, schedule: Q01DX001 (ip), vehicle: saline with Tween-80) is 96 % of control.

Consider `Clc1cc(CBr)c(CBr)cc1Cl`, for which the T/C by setting is: (dose: 12.5 mg/kg/injection, schedule: Q01DX009 (ip), vehicle: saline with Tween-80) 107 % of control; under setting [5], 97 % of control; under setting [6], 100 % of control.

In the case of `O.O.O.O.[Fe].[Fe].[Fe].[NH-]c1c(C(=O)O)ncn1C1[OH+]C(CO)C(O)C1O.[NH-]c1c(C(=O)O)ncn1C1[OH+]C(CO)C(O)C1O` (stereo unspecified), the T/C was 94 % of control (dose: 12.5 mg/kg/injection, schedule: Q01DX005 (ip), vehicle: distilled water + Tween-80); 97 % of control (dose: 25.0 mg/kg/injection, schedule: Q01DX005 (ip), vehicle: distilled water + Tween-80); 103 % of control (dose: 50.0 mg/kg/injection, schedule: Q01DX005 (ip), vehicle: distilled water + Tween-80); 88 % of control (dose: 200.0 mg/kg/injection, schedule: Q01DX005 (ip), vehicle: distilled water + Tween-80).

In the case of `Cc1ccc(S(=O)(=O)OCC(O)C2OCOC3COCOC32)cc1` (stereo unspecified), the T/C is 101 % of control (dose: 100.0 mg/kg/injection, schedule: Q01DX001 (ip), vehicle: Klucel (hydroxypropylcellulose) (HPC)); 103 % of control (dose: 200.0 mg/kg/injection, schedule: Q01DX001 (ip), vehicle: Klucel (hydroxypropylcellulose) (HPC)); 98 % of control (dose: 400.0 mg/kg/injection, schedule: Q01DX001 (ip), vehicle: Klucel (hydroxypropylcellulose) (HPC)); 93 % of control (dose: 600.0 mg/kg/injection, schedule: Q01DX001 (ip), vehicle: Klucel (hydroxypropylcellulose) (HPC)).

Take `OCC1OC(n2ncc3c(NCc4ccco4)ncnc32)C(O)C1O` (stereo unspecified): the T/C (dose: 25.0 mg/kg/injection, schedule: Q01DX009 (ip), vehicle: water) is 95 % of control; the T/C (dose: 50.0 mg/kg/injection, schedule: Q01DX009 (ip), vehicle: water) was 95 % of control; the T/C (dose: 100.0 mg/kg/injection, schedule: Q01DX009 (ip), vehicle: water) is 100 % of control; the T/C (dose: 200.0 mg/kg/injection, schedule: Q01DX009 (ip), vehicle: water) is 104 % of control; the T/C (dose: 400.0 mg/kg/injection, schedule: Q01DX009 (ip), vehicle: water) is 106 % of control.

`CCOC(=O)CC1(O)CCCCC1`: the T/C runs as follows: under setting [7], 101 % of control; under setting [1], 100 % of control; under setting [8], 101 % of control; under setting [9], 101 % of control; under setting [10], 100 % of control; under setting [11], 97 % of control.

Regarding `COc1ccc(OC)c(NC(=O)Oc2cccc(NC(C)=O)c2)c1`, the T/C by setting is: (dose: 50.0 mg/kg/injection, schedule: Q01DX009 (ip), vehicle: Klucel (hydroxypropylcellulose) (HPC)) 105 % of control; under setting [6], 103 % of control; (dose: 100.0 mg/kg/injection, schedule: Q01DX009 (ip), vehicle: Klucel (hydroxypropylcellulose) (HPC)) 102 % of control; under setting [7], 97 % of control; (dose: 200.0 mg/kg/injection, schedule: Q01DX009 (ip), vehicle: Klucel (hydroxypropylcellulose) (HPC)) 100 % of control; under setting [8], 272 % of control and 100 % of control. The T/C by setting is: (dose: 400.0 mg/kg/injection, schedule: Q01DX009 (ip), vehicle: Klucel (hydroxypropylcellulose) (HPC)) 102 % of control; under setting [10], 92 % of control.

In the case of `C=C(Br)CNC(=O)CCC`, the T/C (dose: 2.5 mg/kg/injection, schedule: Q01DX009 (ip), vehicle: saline with Tween-80) was 107 % of control; the T/C (dose: 5.0 mg/kg/injection, schedule: Q01DX009 (ip), vehicle: saline with Tween-80) is 106 % of control; the T/C (dose: 10.0 mg/kg/injection, schedule: Q01DX009 (ip), vehicle: saline with Tween-80) is 102 % of control.

Regarding `CC(=O)OC1CCC2(C)CCCC(O)C2(O)C1` (stereo unspecified), the T/C is, setting by setting: under setting [5], 103 % of control; under setting [6], 116 % of control; under setting [7], 107 % of control; (dose: 100.0 mg/kg/injection, schedule: Q04DX003 (ip), vehicle: acetone) 101 % of control; (dose: 150.0 mg/kg/injection, schedule: Q01DX009 (ip), vehicle: saline) 97 % of control; (dose: 225.0 mg/kg/injection, schedule: Q01DX009 (ip), vehicle: saline) 100 % of control. The T/C (dose: 335.0 mg/kg/injection, schedule: Q01DX009 (ip), vehicle: saline) was 91 % of control.

With `CC(C)NC(=O)c1ccc(N/N=[N+](/C)[O-])cc1`, the T/C is 98 % of control (dose: 6.25 mg/kg/injection, schedule: Q01DX005 (ip), vehicle: saline with Tween-80); 100 % of control (dose: 12.5 mg/kg/injection, schedule: Q01DX005 (ip), vehicle: saline with Tween-80); 107 % of control (dose: 25.0 mg/kg/injection, schedule: Q01DX005 (ip), vehicle: saline with Tween-80); 100 % of control (dose: 50.0 mg/kg/injection, schedule: Q01DX005 (ip), vehicle: saline with Tween-80); 109 % of control (dose: 100.0 mg/kg/injection, schedule: Q01DX005 (ip), vehicle: saline with Tween-80); 107 % of control under setting [7]. For the same compound, the T/C reads like this: under setting [1], 94 % of control; under setting [8], 110 % of control; under setting [9], 100 % of control; under setting [10], 117 % of control; under setting [11], 110 % of control.

For the compound `CCOC(=O)CCSCCC(=O)OCC`, the T/C was 100 % of control under setting [1], 96 % of control under setting [9] and 98 % of control under setting [11].

Take `c1ccc2c(c1)nnn2-c1ccncc1`: the T/C under setting [1] is 91 % of control and the T/C under setting [9] was 104 % of control.

As for `O=C1CC(=Nc2ccc([N+](=O)[O-])cc2)NN1c1c(Cl)cc(Cl)cc1Cl`, the T/C runs as follows: under setting [1], 101 % of control; under setting [9], 97 % of control; under setting [11], 97 % of control.
